The results in this text go back to PMC5323132, “Targeting prohibitins induces apoptosis in acute myeloid leukemia cells” (Oncotarget, 2016).

Structures are written as SMILES. Where “and” joins values, the source holds several entries; their conditions need not be identical. Equal values may be shown once. Read-outs that look alike come from different tables or passages of the source.

For data set [1], the system named is primary AML cells (BMMNC or PBMNC from AML patients). In words: Ex vivo viability (annexin V) of primary AML cells. The format is cell-based, human. The method, then: PBMNC and BMMNC were isolated by centrifugation on a Biocoll (Biochrom AG, Berlin, Germany) gradient and cryopreserved in liquid nitrogen in the presence of 10% dimethyl sulfoxide (DMSO) (Sigma-Aldrich Inc, St Louis, MO, USA).
(§1) Cell viability was assessed by phosphatidylserine exposure and measured as the percentage of annexin V-negative cell population. […] Occasionally, 3.75 μL PI were added after annexin V staining and immediately before acquisition to measure the percentage of annexin V^−/PI^− live cells. In AML samples with infiltration lower than 80% blasts, double staining with anti-CD33 or anti-CD34, and annexin V was performed. In brief, cells were washed in ABB and incubated in 50 μL ABB containing 0.5 μL anti-CD33 or anti-CD34 for 10 min in the dark and thereafter stained with annexin V, as previously mentioned. Cells were acquired using the FACSCanto^TM II flow cytometer (Becton Dickinson, Franklin Lakes, NJ, USA) and data of bulk leukemic/normal and CD33^+- or CD34^+-gated leukemic/normal progenitor cells were analyzed using the FACSDiva^TM software (Becton Dickinson). […] Patient samples were considered as “sensitive” to fluorizoline when cell viability was lower than 80% after incubation with 20 μM during 48 hours.

The test system of data set [2] is CD34- population of AML specimens. In words: Ex vivo viability (annexin V) on CD34- population of AML specimens. The format is cell-based, human. The note with it: six AML specimens, 48 hours. The procedure: (§2) Cell viability was assessed by phosphatidylserine exposure and measured as the percentage of annexin V-negative cell population. After incubation of 1.25 × 10^5 cells with the indicated factors and times, cells were then washed in annexin-binding buffer (ABB) and incubated in 100 μL ABB with 0.5 μL annexin V-APC for 10 min in the dark and then diluted with ABB to a final volume of 150 μL. Occasionally, 3.75 μL PI were added after annexin V staining and immediately before acquisition to measure the percentage of annexin V^−/PI^− live cells. In AML samples with infiltration lower than 80% blasts, double staining with anti-CD33 or anti-CD34, and annexin V was performed. In brief, cells were washed in ABB and incubated in 50 μL ABB containing 0.5 μL anti-CD33 or anti-CD34 for 10 min in the dark and thereafter stained with annexin V, as previously mentioned. Cells were acquired using the FACSCanto^TM II flow cytometer (Becton Dickinson, Franklin Lakes, NJ, USA) and data of bulk leukemic/normal and CD33^+- or CD34^+-gated leukemic/normal progenitor cells were analyzed using the FACSDiva^TM software (Becton Dickinson). Half-maximal lethal dose (LD50) was defined as the concentration of drug required to reduce the cell viability by 50%. Patient samples were considered as “sensitive” to fluorizoline when cell viability was lower than 80% after incubation with 20 μM during 48 hours.

A further data set deals with CD11b in U-937 cells. In words: Differentiation assay, CD11b surface expression by flow cytometry. Format: cell-based. The note with it: Homo sapiens, 48 hours, read-out: CD11b surface marker expression, fold induction compared to DMSO-treated cells. The procedure: (§3) Myeloid maturation induction was assessed by cell surface marker expression analysis. U-937 and primary AML cells were treated as indicated for cell viability assays. After 24 and 48 hours of incubation cells were collected and stained in 50 μL PBS buffer containing 2 mM EDTA and 0.5% bovine serum albumin (BSA) with 0.5 μL anti-human CD11b for 10 min in the dark and then diluted with buffer to a final volume of 150 μL. In parallel, cell viability was analyzed by annexin V staining in separated tubes. Surface expression of the antigen was analyzed by flow cytometry. In these experiments vehicle-treated cells were also included in order to discard DMSO-induced myeloid differentiation.

The test system of data set [3] is CD11b in de novo AML primary samples. Described as above. The format is cell-based. The note with it: Homo sapiens, 48 hours, read-out: CD11b surface marker expression, fold induction compared to DMSO-treated cells. The procedure:
as §3

The test system of data set [4] is U-937 cells. The experiment in a line: Viability by phosphatidylserine exposure (annexin V) flow cytometry. The format is cell-based, human. The note with it: for viability at 5 µM: Homo sapiens, read-out: Viability (%) (annexin V negative cells). The procedure:
as §1
Background: A flow cytometer gives signals particle by particle.

A further data set concerns NOXA mRNA in U-937 cells. In words: RT-MLPA apoptosis-related gene expression. To be noted: Homo sapiens. Format: cell-based. The procedure:
RNA was isolated from cultured 3–5 × 10^6 cells by the RNeasy Micro kit (Qiagen GmbH, Hilden, Germany) according to the manufacturer's protocol. RNA was analyzed by RT-MLPA using SALSA MLPA KIT R011-C1 Apoptosis mRNA from MRC-Holland (Amsterdam, The Netherlands) for the simultaneous detection of 40 messenger RNA molecules, including apoptosis-related genes. In brief, RNA samples (200 ng total RNA) were first reverse transcribed using a gene-specific primer mix. The resulting cDNA was annealed overnight at 60°C to the RT-MLPA probe mix. Annealed oligonucleotides were ligated by adding Ligase-65 (MRC-Holland) and incubated at 54°C for 15 min. Ligation products were amplified by PCR (35 cycles, 30 s at 95°C; 30 s at 60°C, and 1 min at 72°C) with one unlabeled and one FAM-labeled primer. The final PCR fragments amplified were separated by capillary electrophoresis on a 96-capillary ABI-Prism® 3730XL Genetic Analyzer (Applied Biosystems/Hitachi, Carlsbad, CA, USA). Peak area and height were measured using GeneMapper^TM v3.0 analysis software (Applied Biosystems). Ratios of individual peaks relative to the sum of all peaks were calculated, resulting in the relative abundance of mRNAs of the genes of interest.

Data set [5] relates to CD34+ population of AML specimens. In words: Ex vivo viability (annexin V) on CD34+ population of AML specimens. Format: cell-based, human. To be noted: six AML specimens, 48 hours. The method, then:
as §2

Data set [6] relates to normal BMMNC and normal hematopoietic stem cells (PBSC). In words: Ex vivo viability (annexin V) of normal hematologic cells. Format: cell-based, human. The note with it: for median LD50: normal cells. The method, then:
(§4) Normal BMMNC was obtained from apheresis-collected granulocyte colony-stimulating factor (G-CSF)-mobilized progenitor-cell from PB of 3 healthy donors were used as a source of normal CD34^+ cells.
as §1

Experiment in data set [7]: as above
Format: cell-based, human. The note with it: human, normal BMMNC and normal hematopoietic stem cells (PBSC); normal cells, 20 μM, 24 hours; read-out: viable cells (percentage of viability of untreated cells). The method, then:
as §4, §1

Data set [8] deals with U-937 cells. The experiment in a line: MTT cell viability assay. Format: cell-based. To be noted: Homo sapiens, read-out: IC50 (half-maximal inhibitory concentration), MTT. The procedure: (§5) HL-60 and U-937 cells (1.25 × 10^5 cells/well) were incubated in the absence or in the presence of the indicated factors, in a final volume of 250 μL. After 24 or 48 hours, 25 μL MTT reagent (prepared at 5 mg/mL in phosphate-buffered saline (PBS)) was added to each well for an additional 3 hours. The blue MTT formazan precipitate was dissolved in 250 μL isopropanol:1 M HCl (24:1). Then, 100 μL of this cell lysate were plated in a 96-well plate in triplicate and the absorbance values at 570 nm were measured on a multiwell plate reader. The half-maximal inhibitory concentration (IC50) was defined as the concentration of drug required to reduce the MTT metabolization ability by 50%.
A general note: Tetrazolium dyes change colour on reduction, which living cells bring about.

Data set [9] relates to HL-60 cells. The experiment in a line: MTT cell viability assay. Format: cell-based. To be noted: Homo sapiens, read-out: IC50 (half-maximal inhibitory concentration), MTT. The method, then: as §5
Data set [10] has as its system U-937 cells. In words: Methylcellulose colony-forming unit (CFU) assay. The format is cell-based, human. The note with it: pretreated 24 hours, n = 4. The procedure:
(§6) The analysis of the clonogenic capacity after exposition to the fluorizoline was performed using a methylcellulose-based medium with recombinant cytokines and erythropoietin (EPO) for human hematopoietic progenitor cells (MethoCult^TM H4034 Optimum, StemCell Technologies). U-937 cells and primary AML cells were pretreated for 24 hours with the indicated factors, as previously mentioned. Then, cells (1 × 10^3 U-937 cells or 50 × 10^3 primary AML cells) were diluted in 100 μL serum-free IMDM with 25 mM HEPES, homogeneously mixed with 1 mL MethoCult^TM medium, seeded in duplicate cultures and maintained at 37°C with 5% CO2 in air in a humidified atmosphere. Colonies (CFU) were screened based on morphology and cellularity at day 10 (U-937 cells) or day 14 (primary AML cells) using an inverted microscope. A colony was defined as a cluster of > 40 cells.

For another data set, the system named is primary AML cells. In words: Methylcellulose colony-forming unit (CFU) assay. The format is cell-based, human. The note with it: pretreated 24 hours, n = 5. The procedure: as §6
The test system of data set [11] is HL-60 cells. In words: Viability by phosphatidylserine exposure (annexin V) flow cytometry. Format: cell-based, human. To be noted: 48 hours. The procedure:
as §2

Setting [12] is: Figure 5C, 24 h, fluorizoline 5 μM, Q-VD-OPh 20 μM pre-incubated 30 min.

Usually viability stands for the share of living cells, or the viability signal relative to a control. `FC1(F)N=C(c2ccc(Cl)cc2)SC1(F)c1ccc(Cl)cc1` (centres unmarked) [fluorizoline]: the “median LD50” value is 8.0 ± 1.7 µM in data set [1] (24 hours, sensitive patient samples (n = 15)); 10.3 ± 4.0 µM in [1] (samples at relapse (n = 6), 24 hours); 5.4 ± 1.6 µM in data set [1] (samples at relapse (n = 6), 48 hours); “above 20 μM” in [6] (24 hours); “above 20 μM” in data set [6] (48 hours). Also, in data set [1] (48 hours, n = 21), the “mean LD50” value amounted to 5.3 ± 0.8 µM. The viability at 10 µM came to 95% in data set [1] (Homo sapiens, 2 h, Figure 6B, patient #14, 10 μM, 2 h, read-out: Viability (%) (annexin V negative cells)); 92% in data set [1] (Homo sapiens, 4 h, Figure 6B, patient #14, 10 μM, 4 h, read-out: Viability (%) (annexin V negative cells)); 87% in data set [1] (Homo sapiens, 8 h, Figure 6B, patient #14, 10 μM, 8 h, read-out: Viability (%) (annexin V negative cells)); 35% in data set [1] (Homo sapiens, 8 h, Figure 6C, patient #13, 10 μM, 8 h, read-out: Viability (%) (annexin V negative cells)); 50% in data set [1] (Homo sapiens, 8 h, Figure 6C, patient #16, 10 μM, 8 h, read-out: Viability (%) (annexin V negative cells)); 80% in data set [1] (Homo sapiens, 8 h, Figure 6C, patient #18, 10 μM, 8 h, read-out: Viability (%) (annexin V negative cells)). For the same compound, the viability at 10 µM in data set [1] (Homo sapiens, 8 h, Figure 6C, patient #20, 10 μM, 8 h, read-out: Viability (%) (annexin V negative cells)) was found to be 43%; in [1] (Homo sapiens, 12 h, Figure 6B, patient #14, 10 μM, 12 h, read-out: Viability (%) (annexin V negative cells)) it was 81%; in data set [1] (Homo sapiens, 24 h, 10 μM, 24 hours, n = 20 AML samples, untreated 75.8% ± 2.9%, read-out: cell viability (annexin V negative cells)), 35.5%; in [1] (Homo sapiens, Figure 6D, patient #20, 24 h, fluorizoline 10 μM, Q-VD-OPh 20 μM pre-incubated 30 min, read-out: Viability (%) (annexin V negative cells)), 25%. In addition, in data set [1] (Homo sapiens, 8 h, Figure 6C, patient #21, 2.5 μM, 8 h, read-out: Viability (%) (annexin V negative cells)), the viability at 2.5 µM turned out to be 37%. Also, the LD50 result in [2] was “higher than 20 μM”; in data set [5], 4.5 ± 2.3 µM. For the same compound, the fold induction at 40 µM in the data set on CD11b in U-937 cells is 12.1. Moreover, the fold induction at 20 µM in data set [3] was determined as 1.5. The “annexin V-/PI+ population” value in the data set on U-937 cells [4] (10 µM fluorizoline, 24 h, annexin V/PI double staining) was “less than 6%”. For the same compound, the “mean LD50, annexin V” value in the data set on U-937 cells [4] (24 hours) is “above 40 μM”; with U-937 cells [4] (48 hours) it was 14 µM. Also, the viability at 5 µM in the data set on U-937 cells [4] (Figure 5B, 5 μM, 4 h) was 93%; with U-937 cells [4] (Figure 5B, 5 μM, 8 h) it was 92%; in the data set with U-937 cells [4] (Figure 5B, 5 μM, 24 h), 64%; in the data set with U-937 cells [4] (setting [12]), 63%. The fold induction at 10 µM came out at 3.5 in the data set on NOXA mRNA in U-937 cells (4 hours), 6.6 in the data set on NOXA mRNA in U-937 cells (8 hours) and 3.1 in the data set on NOXA mRNA in U-937 cells (24 hours). The “LD50(μM) 24 h” value in data set [6] (Donor No. 1-9, 24 h) is > 20 µM and 16 µM. Further, in data set [6] (Donor No. 1-9, 48 h), the “LD50(μM) 48 h” value was > 20 µM and 8 µM and 13 µM. In addition, the viability at 24 h, 20 µM in data set [7] is 68.6%. Further, the IC50 in the data set on U-937 cells [8] (U-937, 24 h) was 7 µM; in the data set with U-937 cells [8] (U-937, 48 h), 5 µM; in the data set on HL-60 cells [9] (HL-60, 24 h), 8 µM; in the data set with HL-60 cells [9] (HL-60, 48 h) it was 6 µM. Moreover, the “mean CFU respect to untreated cells” value is 49.9 ± 5% with U-937 cells [10] (5 μM), 1.9 ± 1% in the data set on U-937 cells [10] (10 μM), 39.9 ± 5% in the data set on primary AML cells (2.5 μM) and 5.3 ± 1.5% in the data set on primary AML cells (10 μM). For the same compound, the “LD50 (half-maximal lethal dose), annexin V” value in the data set with HL-60 cells [11] was determined as 40 µM.

Take `CC(C)[C@H](NC(=O)c1ccc2ccccc2n1)C(=O)N[C@@H](CC(=O)O)C(=O)COc1c(F)cccc1F` [Q-VD-OPh, reference compound]: in the data set on U-937 cells [4] (setting [12]), the “Viability (%) (annexin V negative cells)” value was determined as 95%.
